Experimental data reported in ChEMBL document CHEMBL5390204, “Persephacin Is a Broad-Spectrum Antifungal Aureobasidin Metabolite That Overcomes Intrinsic Resistance in Aspergillus fumigatus” (J Nat Prod, 2023).

How the values were obtained:
Kodamaea ohmeri = assay: Antifungal activity against multidrug-resistant Kodamaea ohmeri 396 assessed as inhibition in fungal growth incubated for 48 hrs by microplate reader analysis; assay type: functional
Candida duobushaemulonii [1] = assay: Antifungal activity against multidrug-resistant Candida duobushaemulonii 394 assessed as inhibition in fungal growth incubated for 48 hrs by microplate reader analysis; assay type: functional; conditions: Candidozyma duobushaemuli
Candida duobushaemulonii [2] = assay: Antifungal activity against multidrug-resistant Candida duobushaemulonii 391 assessed as inhibition in fungal growth incubated for 48 hrs by microplate reader analysis; assay type: functional; conditions: Candidozyma duobushaemuli
[Candida] auris [3] = Antifungal activity against multidrug-resistant Candida auris 388 assessed as inhibition in fungal growth incubated for 48 hrs by microplate reader analysis; assay type: functional; conditions: Candidozyma auris
[Candida] auris [4] = Antifungal activity against multidrug-resistant Candida auris 386 assessed as inhibition in fungal growth incubated for 48 hrs by microplate reader analysis; assay type: functional; conditions: Candidozyma auris
[Candida] auris [5] = Antifungal activity against multidrug-resistant Candida auris 382 assessed as inhibition in fungal growth incubated for 48 hrs by microplate reader analysis; assay type: functional; conditions: Candidozyma auris
Candida tropicalis [6] = assay: Antifungal activity against Candida tropicalis 13 assessed as inhibition in fungal growth incubated for 48 hrs by microplate reader analysis; assay type: functional
Pichia kudriavzevii = assay: Antifungal activity against Candida krusei 25 assessed as inhibition in fungal growth incubated for 48 hrs by microplate reader analysis; assay type: functional
Kluyveromyces marxianus = assay: Antifungal activity against Candida kefyr 12 assessed as inhibition in fungal growth incubated for 48 hrs by microplate reader analysis; assay type: functional
Candida parapsilosis [7] = assay: Antifungal activity against Candida parapsilosis ATCC 22019 (Y-12969) assessed as reduction in fungal growth incubated for 48 hrs by microplate reader analysis; assay type: functional; conditions: Lodderomyces parapsilosis
Candida albicans [8] = assay: Antifungal activity against Candida albicans 3 assessed as inhibition in fungal growth incubated for 48 hrs by microplate reader analysis; assay type: functional
Candida albicans [9] = assay: Antifungal activity against Candida albicans 5 assessed as inhibition in fungal growth incubated for 48 hrs by microplate reader analysis; assay type: functional
Candida albicans [10] = assay: Antifungal activity against Candida albicans 8 assessed as inhibition in fungal growth incubated for 48 hrs by microplate reader analysis; assay type: functional
Candida albicans [11] = assay: Antifungal activity against Candida albicans 10 assessed as inhibition in fungal growth incubated for 48 hrs by microplate reader analysis; assay type: functional
Candida albicans [12] = assay: Antifungal activity against Candida albicans 14 assessed as inhibition in fungal growth incubated for 48 hrs by microplate reader analysis; assay type: functional
Candida albicans [13] = assay: Antifungal activity against Candida albicans 21 assessed as inhibition in fungal growth incubated for 48 hrs by microplate reader analysis; assay type: functional
Nakaseomyces glabratus [14] = assay: Antifungal activity against Candida glabrata 4 assessed as inhibition in fungal growth incubated for 48 hrs by microplate reader analysis; assay type: functional
Nakaseomyces glabratus [15] = assay: Antifungal activity against Candida glabrata 11 assessed as inhibition in fungal growth incubated for 48 hrs by microplate reader analysis; assay type: functional
Nakaseomyces glabratus [16] = assay: Antifungal activity against Candida glabrata 16 assessed as inhibition in fungal growth incubated for 48 hrs by microplate reader analysis; assay type: functional
Nakaseomyces glabratus [17] = assay: Antifungal activity against Candida glabrata 17 assessed as inhibition in fungal growth incubated for 48 hrs by microplate reader analysis; assay type: functional
Nakaseomyces glabratus [18] = assay: Antifungal activity against Candida glabrata 22 assessed as inhibition in fungal growth incubated for 48 hrs by microplate reader analysis; assay type: functional
Candida parapsilosis [19] = assay: Antifungal activity against Candida parapsilosis 23 assessed as inhibition in fungal growth incubated for 48 hrs by microplate reader analysis; assay type: functional; conditions: Lodderomyces parapsilosis
Cryptococcus neoformans [20] = assay: Antifungal activity against Cryptococcus neoformans H99 assessed as reduction in fungal growth incubated for 48 hrs by microplate reader analysis; assay type: functional
Aspergillus fumigatus [21] = assay: Antifungal activity against Aspergillus fumigatus MYA 3627 assessed as reduction in fungal growth incubated for 48 hrs by microplate reader analysis; assay type: functional
Aspergillus fumigatus [22] = assay: Antifungal activity against Aspergillus fumigatus NRRL6113 assessed as reduction in fungal growth incubated for 48 hrs by microplate reader analysis; assay type: functional
Aspergillus niger [23] = assay: Antifungal activity against Aspergillus niger FGSC A732 assessed as reduction in fungal growth incubated for 48 hrs by microplate reader analysis; assay type: functional
Aspergillus terreus [24] = assay: Antifungal activity against Aspergillus terreus 191A6 assessed as reduction in fungal growth incubated for 48 hrs by microplate reader analysis; assay type: functional
Curvularia lunata [25] = assay: Antifungal activity against Curvularia lunata NRRL6409 assessed as reduction in fungal growth incubated for 48 hrs by microplate reader analysis; assay type: functional
Mucor circinelloides = assay: Antifungal activity against Mucor circinelloides 235C7 assessed as reduction in fungal growth incubated for 48 hrs by microplate reader analysis; assay type: functional
Candida albicans [26] = assay: Antifungal activity against Candida albicans SC5314 assessed as inhibition in fungal growth incubated for 48 hrs in presence of 0% serum by microplate reader analysis; assay type: functional
Candida albicans [27] = assay: Antifungal activity against Candida albicans SC5314 assessed as inhibition in fungal growth incubated for 48 hrs in presence of 5% serum by microplate reader analysis; assay type: functional
Candida albicans [28] = assay: Antifungal activity against Candida albicans SC5314 assessed as inhibition in fungal growth incubated for 48 hrs in presence of 10% serum by microplate reader analysis; assay type: functional
[Candida] auris [29] = Antifungal activity against multidrug-resistant Candida auris 381 assessed as inhibition in fungal growth incubated for 48 hrs in presence of 0% serum by microplate reader analysis; assay type: functional; conditions: Candidozyma auris
[Candida] auris [30] = Antifungal activity against multidrug-resistant Candida auris 381 assessed as inhibition in fungal growth incubated for 48 hrs in presence of 5% serum by microplate reader analysis; assay type: functional; conditions: Candidozyma auris
Aspergillus fumigatus [31] = assay: Antifungal activity against Aspergillus fumigatus ATCC MYA-3627 assessed as inhibition in fungal growth incubated for 48 hrs in presence of 0% serum by microplate reader analysis; assay type: functional
Aspergillus fumigatus [32] = assay: Antifungal activity against Aspergillus fumigatus ATCC MYA-3627 assessed as inhibition in fungal growth incubated for 48 hrs in presence of 10% serum by microplate reader analysis; assay type: functional
Candida tropicalis [33] = assay: Antifungal activity against Candida tropicalis ATCC750 (Y-12699) assessed as reduction in fungal viability incubated for 48 hrs by microplate reader analysis; assay type: functional
Cryptococcus neoformans [34] = assay: Antifungal activity against Cryptococcus neoformans H99 assessed as reduction in fungal viability incubated for 48 hrs by microplate reader analysis; assay type: functional
Aspergillus fumigatus [35] = assay: Antifungal activity against Aspergillus fumigatus MYA 3627 assessed as reduction in fungal viability incubated for 48 hrs by microplate reader analysis; assay type: functional
Aspergillus fumigatus [36] = assay: Antifungal activity against Aspergillus fumigatus NRRL6113 assessed as reduction in fungal viability incubated for 48 hrs by microplate reader analysis; assay type: functional
Aspergillus niger [37] = assay: Antifungal activity against Aspergillus niger FGSC A732 assessed as reduction in fungal viability incubated for 48 hrs by microplate reader analysis; assay type: functional
Aspergillus terreus [38] = assay: Antifungal activity against Aspergillus terreus 191A6 assessed as reduction in fungal viability incubated for 48 hrs by microplate reader analysis; assay type: functional
Curvularia lunata [39] = assay: Antifungal activity against Curvularia lunata NRRL6409 assessed as reduction in fungal viability incubated for 48 hrs by microplate reader analysis; assay type: functional
Paecilomyces lilacinus = assay: Antifungal activity against Paecilomyces lilacinus 165E10 assessed as reduction in fungal viability incubated for 48 hrs by microplate reader analysis; assay type: functional, Purpureocillium lilacinum

C[C@@H]1[C@H](O)[C@@H](C)/C=C/C=C/C=C/C=C/C=C/C=C/C=C/[C@H](O[C@@H]2O[C@H](C)[C@@H](O)[C@H](N)[C@@H]2O)C[C@@H]2O[C@](O)(C[C@@H](O)C[C@@H](O)[C@H](O)CC[C@@H](O)C[C@@H](O)CC(=O)O[C@H]1C)C[C@H](O)[C@H]2C(=O)O [AMPHOTERICIN B]
2.5 µM: MIC80 ([Candida] auris [3]) | MIC80 ([Candida] auris [4]) | MFC (Cryptococcus neoformans [20]) | MFC (Aspergillus fumigatus [21]) | MIC80 (Aspergillus fumigatus [21]) | MIC80 (Aspergillus fumigatus [22]) | MFC (Aspergillus niger [23]) | MIC80 (Aspergillus terreus [24]) | MFC (Curvularia lunata [25]) | MIC80 ([Candida] auris [29]) | MIC80 (Aspergillus fumigatus [31]) | MFC<=99.9 (Candida tropicalis [33]) | MFC<=99.9 (Cryptococcus neoformans [34]) | MFC<=99.9 (Aspergillus fumigatus [35]) | MFC<=99.9 (Aspergillus niger [37]) | MFC<=99.9 (Curvularia lunata [39])
10 µM: MFC (Aspergillus fumigatus [22]) | MFC (Aspergillus terreus [24]) | MFC<=99.9 (Aspergillus fumigatus [36]) | MFC<=99.9 (Aspergillus terreus [38])
0.6 µM: MIC80 (Candida albicans [8]) | MIC80 (Candida albicans [9]) | MIC80 (Candida albicans [10]) | MIC80 (Candida albicans [11]) | MIC80 (Candida albicans [13]) | MIC80 (Aspergillus niger [23]) | MIC80 (Candida albicans [26])
>10 µM: MFC<=99.9 (Paecilomyces lilacinus)
5 µM: MIC80 (Candida duobushaemulonii [1]) | MIC80 (Candida duobushaemulonii [2]) | MFC (Candida parapsilosis [7])
0.3 µM: MIC80 (Kluyveromyces marxianus) | MIC80 (Nakaseomyces glabratus [15]) | MIC80 (Nakaseomyces glabratus [17]) | MIC80 (Nakaseomyces glabratus [18]) | MIC80 (Curvularia lunata [25])
< 0.2 µM: MIC80 (Candida albicans [27]) | MIC80 (Candida albicans [28]) | MIC80 ([Candida] auris [30])
0.2 µM: MIC80 (Candida tropicalis [6]) | MIC80 (Nakaseomyces glabratus [16]) | MIC80 (Aspergillus fumigatus [32])
1.3 µM: MIC80 (Kodamaea ohmeri) | MIC80 ([Candida] auris [5]) | MIC80 (Pichia kudriavzevii) | MIC80 (Candida parapsilosis [7]) | MIC80 (Candida albicans [12]) | MIC80 (Nakaseomyces glabratus [14]) | MIC80 (Candida parapsilosis [19]) | MIC80 (Cryptococcus neoformans [20]) | MFC (Mucor circinelloides) | MIC80 (Mucor circinelloides)

CC[C@H](C)C[C@H](C)C[C@H](C)C[C@@H]1NC(=O)[C@H](C(C)C)N(C)C(=O)[C@@H]([C@H](C)CC)OC(=O)[C@H](C(C)(C)O)N(C)C(=O)[C@H](CC(C)C)NC(=O)[C@H](C(C)C)N(C)C(=O)[C@H]([C@H](C)CC)NC(=O)[C@@H]2CCCN2C(=O)CN(C)C1=O
2.5 µM: MIC80 (Kodamaea ohmeri) | MIC80 (Candida duobushaemulonii [1]) | MIC80 (Candida duobushaemulonii [2]) | MIC80 ([Candida] auris [3]) | MIC80 ([Candida] auris [4]) | MIC80 ([Candida] auris [5]) | MFC (Candida parapsilosis [7]) | MIC80 (Candida parapsilosis [7]) | MIC80 (Candida albicans [8]) | MIC80 (Candida albicans [11]) | MIC80 (Candida parapsilosis [19]) | MFC (Cryptococcus neoformans [20]) | MIC80 (Aspergillus fumigatus [21]) | MIC80 (Aspergillus fumigatus [22]) | MIC80 (Aspergillus terreus [24]) | MIC80 (Aspergillus fumigatus [31]) | MIC80 (Aspergillus fumigatus [32]) | MFC<=99.9 (Candida tropicalis [33]) | MFC<=99.9 (Cryptococcus neoformans [34])
0.6 µM: MIC80 (Candida tropicalis [6]) | MIC80 (Candida albicans [10]) | MIC80 (Candida albicans [12]) | MIC80 (Nakaseomyces glabratus [15]) | MIC80 (Nakaseomyces glabratus [18]) | MIC80 (Cryptococcus neoformans [20]) | MFC (Curvularia lunata [25]) | MIC80 (Candida albicans [26]) | MFC<=99.9 (Curvularia lunata [39])
1.3 µM: MIC80 (Pichia kudriavzevii) | MIC80 (Kluyveromyces marxianus) | MIC80 (Candida albicans [9]) | MIC80 (Candida albicans [13]) | MIC80 (Nakaseomyces glabratus [14]) | MIC80 (Aspergillus niger [23]) | MIC80 ([Candida] auris [29]) | MIC80 ([Candida] auris [30])
>10 µM: MFC<=99.9 (Aspergillus niger [37]) | MFC<=99.9 (Aspergillus terreus [38]) | MFC<=99.9 (Paecilomyces lilacinus)
5 µM: MFC (Aspergillus fumigatus [21]) | MFC (Aspergillus fumigatus [22]) | MFC<=99.9 (Aspergillus fumigatus [35]) | MFC<=99.9 (Aspergillus fumigatus [36])
> 10 µM: MFC (Aspergillus niger [23]) | MFC (Aspergillus terreus [24]) | MFC (Mucor circinelloides) | MIC80 (Mucor circinelloides)
0.2 µM: MIC80 (Nakaseomyces glabratus [17]) | MIC80 (Candida albicans [27])
0.3 µM: MIC80 (Nakaseomyces glabratus [16]) | MIC80 (Curvularia lunata [25]) | MIC80 (Candida albicans [28])
